In brackets after ≈: the same amount, converted by molar mass.
Tests used:
Escherichia coli [1] = experiment: Antibacterial activity against Escherichia coli isolate 055 by broth microdilution assay; assay type: functional
80S Ribosome = experiment: Inhibition of human ribosome containing eukaryotic wild type ribosomal RNA A-site in rabbit reticulocyte lysates assessed as reduction in ribosome-mediated protein synthesis in presence of S-30 extracts by fire fly luciferase synthesis based cell-free translation assay
Bacterial 70S ribosome = experiment: Inhibition of Mycobacterium smegmatis ribosome containing wild type ribosomal RNA A-site in rabbit reticulocyte lysates assessed as reduction in ribosome-mediated protein synthesis in presence of S-30 extracts by fire fly luciferase synthesis based cell-free translation assay; set-up: species or system Mycolicibacterium smegmatis
Staphylococcus aureus [2] = experiment: Antibacterial activity against methicillin-resistant Staphylococcus aureus isolate AG 038 by broth microdilution assay; assay type: functional
Ribosome = experiment: Inhibition of ribosome-mediated protein synthesis in rabbit reticulocyte lysates in presence of S-30 extracts by fire fly luciferase synthesis based cell-free translation assay; set-up: species or system Oryctolagus cuniculus
[3] = Inhibition of Mycobacterium smegmatis ribosome containing ribosomal RNA A-site G1491C mutant in rabbit reticulocyte lysates assessed as reduction in ribosome-mediated protein synthesis in presence of S-30 extracts by fire fly luciferase synthesis based cell-free translation assay; set-up: species or system Mycolicibacterium smegmatis
Staphylococcus aureus [4] = experiment: Antibacterial activity against methicillin-resistant Staphylococcus aureus isolate AG 042 by broth microdilution assay; assay type: functional
[5] = Inhibition of Mycobacterium smegmatis ribosome containing ribosomal RNA A-site G1491A mutant in rabbit reticulocyte lysates assessed as reduction in ribosome-mediated protein synthesis in presence of S-30 extracts by fire fly luciferase synthesis based cell-free translation assay; set-up: species or system Mycolicibacterium smegmatis
[6] = Inhibition of human ribosome containing eukaryotic ribosomal RNA A-site Cyt14 allele in rabbit reticulocyte lysates assessed as reduction in ribosome-mediated protein synthesis in presence of S-30 extracts by fire fly luciferase synthesis based cell-free translation assay
Escherichia coli [7] = experiment: Antibacterial activity against Escherichia coli isolate 003 by broth microdilution assay; assay type: functional
Staphylococcus aureus [8] = experiment: Antibacterial activity against methicillin-resistant Staphylococcus aureus isolate AG 039 by broth microdilution assay; assay type: functional
Staphylococcus aureus [9] = experiment: Antibacterial activity against methicillin-resistant Staphylococcus aureus isolate AG 044 by broth microdilution assay; assay type: functional
Escherichia coli [10] = experiment: Antibacterial activity against Escherichia coli isolate 006 by broth microdilution assay; assay type: functional
[11] = Inhibition of human ribosome containing eukaryotic ribosomal RNA A-site A1555G mutant in rabbit reticulocyte lysates assessed as reduction in ribosome-mediated protein synthesis in presence of S-30 extracts by fire fly luciferase synthesis based cell-free translation assay
Escherichia coli [12] = experiment: Antibacterial activity against Escherichia coli isolate 001 by broth microdilution assay; assay type: functional
[13] = Inhibition of Mycobacterium smegmatis ribosome containing ribosomal RNA A-site A1408G mutant in rabbit reticulocyte lysates assessed as reduction in ribosome-mediated protein synthesis in presence of S-30 extracts by fire fly luciferase synthesis based cell-free translation assay; set-up: species or system Mycolicibacterium smegmatis

Structure (SMILES) | MIC (Escherichia coli [1]) [µg/mL] | IC50 (80S Ribosome) [nM] | IC50 (Bacterial 70S ribosome) [nM] | MIC (Staphylococcus aureus [2]) [µg/mL] | IC50 (Ribosome) [µg/mL] | IC50 [3] [µg/mL] | MIC (Staphylococcus aureus [4]) [µg/mL] | IC50 [5] [µg/mL] | IC50 [6] [µg/mL] | MIC (Escherichia coli [7]) [µg/mL] | MIC (Staphylococcus aureus [8]) [µg/mL] | MIC (Staphylococcus aureus [9]) [µg/mL] | MIC (Escherichia coli [10]) [µg/mL] | IC50 [11] [µg/mL] | MIC (Escherichia coli [12]) [µg/mL] | IC50 [13] [µg/mL]
NC[C@@H]1O[C@H](O[C@H]2[C@@H](O)[C@H](O[C@@H]3[C@@H](O)[C@H](N)C[C@H](N)[C@H]3O[C@H]3O[C@H](CO)[C@@H](OCO[C@H]4O[C@H](CO)[C@@H](O)[C@H](O)[C@H]4O)[C@H](O)[C@H]3N)O[C@@H]2CO)[C@H](N)[C@@H](O)[C@@H]1O | ≥ 128 | 29800 | 384 | 64 (≈ 79.2 µM) | 43.14 | 200.3 | 128 (≈ 158 µM) | 33.45 | 130.61 | ≥ 128 | ≥ 128 | 64 (≈ 79.2 µM) | 64 (≈ 79.2 µM) | 96.03 | ≥ 128 | 17.16
NC[C@@H]1O[C@H](O[C@H]2[C@@H](O)[C@H](O[C@@H]3[C@@H](O)[C@H](N)C[C@H](N)[C@H]3O[C@H]3O[C@H](CO)[C@@H](OCCCc4ccccc4)[C@H](O)[C@H]3N)O[C@@H]2CO)[C@H](N)[C@@H](O)[C@@H]1O | 16 (≈ 21.8 µM) | 67900 | 273 | 2 (≈ 2.73 µM) | – | 210.73 | 4 (≈ 5.45 µM) | 51.26 | 268.57 | 8 (≈ 10.9 µM) | 8 (≈ 10.9 µM) | 4 (≈ 5.45 µM) | 8 (≈ 10.9 µM) | 105.68 | 16 (≈ 21.8 µM) | 14.52
NC[C@@H]1O[C@H](O[C@H]2[C@@H](O)[C@H](O[C@@H]3[C@@H](O)[C@H](N)C[C@H](N)[C@H]3O[C@H]3O[C@@H]4COC(CCc5ccccc5)O[C@H]4[C@H](O)[C@H]3N)O[C@@H]2CO)[C@H](N)[C@@H](O)[C@@H]1O (some centres not stated) | 32 (≈ 43.7 µM) | 452000 | 137 | 4 (≈ 5.47 µM) | – | 124.07 | 4 (≈ 5.47 µM) | 43.01 | 183.86 | 32 (≈ 43.7 µM) | 8 (≈ 10.9 µM) | 16 (≈ 21.9 µM) | 16 (≈ 21.9 µM) | 126.88 | 32 (≈ 43.7 µM) | 3.81
NC[C@@H]1O[C@H](O[C@H]2[C@@H](O)[C@H](O[C@@H]3[C@@H](O)[C@H](N)C[C@H](N)[C@H]3O[C@H]3O[C@H](CO)[C@@H](O[C@H]4O[C@H](CO)[C@@H](O)[C@H](O)[C@@H]4O)[C@H](O)[C@H]3N)O[C@@H]2CO)[C@H](N)[C@@H](O)[C@@H]1O | > 128 | 2820 | 373 | 64 (≈ 82.3 µM) | 36.82 | 81.32 | > 128 | 8.79 | 51.72 | ≥ 128 | ≥ 128 | 32 (≈ 41.1 µM) | 16 (≈ 20.6 µM) | 18.05 | > 128 | 5.1
NC[C@@H]1O[C@H](O[C@H]2[C@@H](O)[C@H](O[C@@H]3[C@@H](O)[C@H](N)C[C@H](N)[C@H]3O[C@H]3O[C@H](CO)[C@@H](O[C@@H]4O[C@H](CO)[C@@H](O)[C@H](O)[C@@H]4O)[C@H](O)[C@H]3N)O[C@@H]2CO)[C@H](N)[C@@H](O)[C@@H]1O | > 128 | 70200 | 591 | ≥ 128 | 47.64 | 297.39 | ≥ 128 | 51.48 | 90.35 | > 128 | ≥ 128 | ≥ 128 | 64 (≈ 82.3 µM) | 85.7 | > 128 | 27.91
NC[C@@H]1O[C@H](O[C@H]2[C@@H](O)[C@H](O[C@@H]3[C@@H](O)[C@H](N)C[C@H](N)[C@H]3O[C@H]3O[C@H](CO)[C@@H](O[C@H]4O[C@H](CO)[C@H](O)[C@H](O)[C@H]4O)[C@H](O)[C@H]3N)O[C@@H]2CO)[C@H](N)[C@@H](O)[C@@H]1O | > 128 | 2870 | 707 | 64 (≈ 82.3 µM) | 23.75 | 118.67 | 64 (≈ 82.3 µM) | 18.68 | 35.63 | > 128 | 128 (≈ 165 µM) | 64 (≈ 82.3 µM) | 32 (≈ 41.1 µM) | 14.95 | > 128 | 12.01
NC[C@@H]1O[C@H](O[C@H]2[C@@H](O)[C@H](O[C@@H]3[C@@H](O)[C@H](N)C[C@H](N)[C@H]3O[C@H]3O[C@H](CO)[C@@H](O[C@@H]4O[C@H](CO)[C@H](O)[C@H](O)[C@H]4O)[C@H](O)[C@H]3N)O[C@@H]2CO)[C@H](N)[C@@H](O)[C@@H]1O | > 128 | 182000 | 1950 | ≥ 128 | 104.57 | 623.16 | > 128 | 78.05 | 286.76 | > 128 | ≥ 128 | > 128 | 128 (≈ 165 µM) | 209.22 | > 128 | 36.46
NC[C@@H]1O[C@H](O[C@H]2[C@@H](O)[C@H](O[C@@H]3[C@@H](O)[C@H](N)C[C@H](N)[C@H]3O[C@H]3O[C@H](CO)[C@@H](O[C@H]4O[C@H](CO)[C@@H](N)[C@H](O)[C@H]4O)[C@H](O)[C@H]3N)O[C@@H]2CO)[C@H](N)[C@@H](O)[C@@H]1O | 32 (≈ 41.2 µM) | 438 | 154 | 4 (≈ 5.15 µM) | 19.59 | 32.79 | 8 (≈ 10.3 µM) | 6.07 | 18.95 | 16 (≈ 20.6 µM) | 8 (≈ 10.3 µM) | 4 (≈ 5.15 µM) | 2 (≈ 2.57 µM) | 3.62 | 32 (≈ 41.2 µM) | 7.06
NC[C@@H]1O[C@H](O[C@H]2[C@@H](O)[C@H](O[C@@H]3[C@@H](O)[C@H](N)C[C@H](N)[C@H]3O[C@H]3O[C@H](CO)[C@@H](O[C@@H]4O[C@H](CO)[C@@H](N)[C@H](O)[C@H]4O)[C@H](O)[C@H]3N)O[C@@H]2CO)[C@H](N)[C@@H](O)[C@@H]1O | > 64 | 9810 | 373 | 32 (≈ 41.2 µM) | 32.41 | 32.03 | > 64 | 4.87 | 21.43 | > 64 | > 64 | 32 (≈ 41.2 µM) | 16 (≈ 20.6 µM) | 17.38 | > 64 | 2.39

Reference: ChEMBL document CHEMBL3588782, “Synthesis, antiribosomal and antibacterial activity of 4-O-glycopyranosyl paromomycin aminoglycoside antibiotics” (Medchemcomm, 2014)
